Reference: patent US7648711B2, “Dimethicone-containing sustained release injection formulation” (priority 2003, dated 2010)
Like-named read-outs stand apart in the source and are kept apart here.

Assay: Solubility of therapeutic drugs in dimethicone
Type: physicochemical
Text: Thus, from the view point of bio-compatibility, dimethicone is suitable to be used as medium to prepare formulation for subcutaneous injection. […] Therefore, this will not pose any stability problem when using silicone as medium to prepare suspensions comprising the aforesaid drugs, which is one of the important factors usually affecting the sustained action of a long-lasting formulation. […] When hydrogenated castor oil used within the proper range (0.2% to 0.5%), the resulting liquid suspension is better in terms of stability, fluidibility, injectability and long-lasting releasing effect than the injection formulation prepared using water, vegetable oil or other organic liquid as the suspension medium. Hydrogenated castor oil functions as a suspending agent and enhances the effect of sustained releasing. In addition, when the formulation of the present invention is prepared by the micro powder crystallizing method, the presence of hydrogenated castor oil suppresses the growth of the crystal nucleus of active ingredients, whereby producing micro powder of active ingredients with a particle size of 20 micrometers or smaller. (4) By mixing the active ingredients with hydrogenated castor oil or with the-combination of hydrogenated castor oil and ethylcellulose to produce solid dispersion micro powder with particle size smaller than 300 micrometers, then dispersing the micro powder in silicone oil and grinding with a colloid mill or a ball mill, a long lasting release formulation containing solid dispersion of various particle sizes (from 10 micrometer to 150 micrometers) can be produced. Further, the sustained releasing effect of the formulation may be modified by adjusting the particle size of the solid dispersion and the proportion of hydrogenated castor oil relative to the active ingredients. For instance, sustained release formulations with various durations of effectiveness may be prepared as follows: mixing avermectins with hydrogenated castor oil to produce two solid dispersions with the avermectins to hydrogenated castor oil equal to 1:2 and 2:1, respectively, then mixing the two solid dispersions at a given ratio and dispersing the mixture in silicone oil, and producing the solid dispersion in the system with the particle size varying between 85 micrometers to 120 micrometers by controlling the extent of grinding. The formulation can provide an effective sustained releasing period up to 140 days following a single administration. Furthermore, the injection prepared by the above method has better injectability, stability and biocompatibility than water or vegetable oil based sustained release formulations for solid dispersion micro powder of avermectins/hydrogenated castor oil. Specifically, the formulation using water as medium has three disadvantages. First, it has difficulty to maintain an effective sustained releasing for more than 80 days. Second, it has poor injectability and, without adding more water soluble suspension assisting agents, solid suspension phase may “separate” from the water phase, causing injection failure due to blocking of the syringe needle. Third, it results in tissue lumps around the injection site. Other organic liquid based long-lasting formulations have similar problems.

Row | Compound | Solubility in dimethicone | Solubility in dimethicone (dimethicone)
1 | CO/N=C(\C(=O)N[C@@H]1C(=O)N2C(C(=O)O)=C(CSC(=O)c3ccco3)CS[C@H]12)c1csc(N)n1 [ceftiofur] | less than 0.01% | –
2 | O=C(NC(=O)c1c(F)cccc1F)Nc1ccc(Cl)cc1 [diflubenzuron] | – | less than 0.01%
3 | O=[N+]([O-])NC1=NCCN1Cc1ccc(Cl)nc1 [imidacloprid] | less than 0.01% | –
4 | CC1(C)S[C@@H]2[C@H](NC(=O)Cc3ccccc3)C(=O)N2[C@H]1C(=O)[O-].[K+] [penicillin G potassium salt] | less than 0.01% | –
5 | CC1(C)S[C@@H]2[C@H](NC(=O)Cc3ccccc3)C(=O)N2[C@H]1C(=O)[O-].[Na+] [penicillin G sodium salt] | less than 0.01% | –
